Earlier results as cited in patent US7678393B1, “Mixture composition and method useful for topical and internal application” (DB Laboratories LLC, priority 2006, dated 2010).

Assays:
cyclooxygenase-2 (COX-2) = settings: LPS stimulation
iNOS = settings: LPS stimulation
F0F1-ATPase/ATP synthase = settings: micromolar concentrations
Interlukin-2 (IL-2) = Interlukin-2 (IL-2) (Homo sapiens, UniProt P60568); settings: by direct binding of IL-2
Interlukin-2 (IL-2), sequence (P60568 21-153, species assumed): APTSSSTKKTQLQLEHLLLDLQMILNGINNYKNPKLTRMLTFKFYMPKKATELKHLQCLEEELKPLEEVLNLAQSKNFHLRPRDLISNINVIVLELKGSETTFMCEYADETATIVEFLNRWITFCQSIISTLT

| Molecule | COX-2 activation by LPS (cyclooxygenase-2 (COX-2)) | iNOS activation by LPS (iNOS) | inhibition of F0F1-ATPase/ATP synthase (F0F1-ATPase/ATP synthase) | also measured |
| --- | --- | --- | --- | --- |
| O=C(O[C@@H]1Cc2c(O)cc(O)cc2O[C@@H]1c1cc(O)c(O)c(O)c1)c1cc(O)c(O)c(O)c1 [(−)epigallocatechin-3-gallate] | inhibited | inhibited | showed inhibition at micromolar concentrations |  |
| O=c1cc(-c2ccc(O)cc2)oc2cc(O)cc(O)c12 [apigenin] | inhibited | inhibited |  |  |
| O=c1c(O)c(-c2ccc(O)cc2)oc2cc(O)cc(O)c12 [kaempferol] | inhibited | inhibited | showed inhibition at micromolar concentrations |  |
| Oc1ccc(/C=C/c2cc(O)cc(O)c2)cc1 [resveratol] |  |  | showed inhibition at micromolar concentrations |  |
| O=C(OC[C@H]1O[C@@H](OC(=O)c2cc(O)c(O)c(OC(=O)c3cc(O)c(O)c(O)c3)c2)[C@H](OC(=O)c2cc(O)c(O)c(OC(=O)c3cc(O)c(O)c(O)c3)c2)[C@@H](OC(=O)c2cc(O)c(O)c(OC(=O)c3cc(O)c(O)c(O)c3)c2)[C@@H]1OC(=O)c1cc(O)c(O)c(OC(=O)c2cc(O)c(O)c(O)c2)c1)c1cc(O)c(O)c(OC(=O)c2cc(O)c(O)c(O)c2)c1 [tannic acid] |  |  | showed inhibition at micromolar concentrations |  |
| Lipoteichoic acid [LTA] |  |  |  | Interlukin-2 function (Interlukin-2 (IL-2)): inhibits; bound in plasma lipoproteins, efficiency (plasma lipoproteins; plasma): > 95%; distribution in HDL (plasma lipoproteins; plasma lipoproteins): 68%±10%; distribution in LDL (plasma lipoproteins; plasma lipoproteins): 28%±8%; distribution in VLDL (plasma lipoproteins; plasma lipoproteins): 4%±5% |
